Experimental data published in patent US20230089867A1, “CYCLIC PENTAMER COMPOUNDS AS PROPROTEIN CONVERTASE SUBTILISIN/KEXIN TYPE 9 (PCSK9) INHIBITORS FOR THE TREATMENT OF METABOLIC DISORDER” (Novartis AG, priority 2018, published 2023).

Molecular target: human PCSK9 (Homo sapiens, UniProt Q8NBP7)
Test: PCSK9 ligand binding TR-FRET assay (interference with binding of human PCSK9 to human LDLR)
Details: for Max % inhibition: PCSK9 FRET assay, efficacy (Amax), 100% = 1 uM unlabeled human PCSK9, 0% = DMSO; for IC50: TR-FRET, human PCSK9 Alexa Fluor 647 / human LDLR extracellular domain-Europium Kryptate, read-out: PCSK9 FRET Assay IC50
Procedure, shortened: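 Threefold compound dilutions were pre-incubated 30 min with PCSK9, after which 4 nM Europium Kryptate-tagged human LDLR ectodomain was added for a further 2 h.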

Chain of human PCSK9 (Q8NBP7 153-692): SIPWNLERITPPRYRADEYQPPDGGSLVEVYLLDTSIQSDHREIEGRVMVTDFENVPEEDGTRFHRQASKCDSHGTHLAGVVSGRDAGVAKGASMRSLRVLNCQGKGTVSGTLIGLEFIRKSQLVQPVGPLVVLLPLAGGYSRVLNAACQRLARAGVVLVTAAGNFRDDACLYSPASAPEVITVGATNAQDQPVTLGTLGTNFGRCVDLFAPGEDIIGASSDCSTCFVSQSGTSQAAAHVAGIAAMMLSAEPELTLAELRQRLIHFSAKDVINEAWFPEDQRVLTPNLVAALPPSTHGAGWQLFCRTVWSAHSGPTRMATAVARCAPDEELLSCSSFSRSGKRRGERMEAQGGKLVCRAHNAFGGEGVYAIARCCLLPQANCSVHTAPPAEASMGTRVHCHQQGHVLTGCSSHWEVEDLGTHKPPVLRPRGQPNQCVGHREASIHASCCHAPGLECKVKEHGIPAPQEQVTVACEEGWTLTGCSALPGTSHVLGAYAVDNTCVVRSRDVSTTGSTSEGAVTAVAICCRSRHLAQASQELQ
Chain of human PCSK9 (Q8NBP7 31-152 partner limits assumed): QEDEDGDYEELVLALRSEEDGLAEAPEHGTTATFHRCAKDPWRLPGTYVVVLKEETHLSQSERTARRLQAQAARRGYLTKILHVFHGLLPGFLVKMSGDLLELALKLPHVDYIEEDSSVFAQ

Q: With COC[C@@H]1NC(=O)[C@H](C)N(Cc2ccc(Cl)cc2Oc2ccc(-c3cnc(CN(C)C)n3C)cc2)C(=O)C[C@@H](Cc2c(F)ccc(F)c2F)C(=O)N(C)[C@@H](C)CNC(=O)C[C@H](Cc2ccc(Cl)cc2)N(C)C1=O [Compound 258, (2S,5S,8S,13S,16R)-1-(4-chloro-2-(4-(2-((dimethylamino)methyl)-1-methyl-1H-imidazol-5-yl)phenoxy)benzyl)-8-(4-chlorobenzyl)-5-(methoxymethyl)-2,7,13,14-tetramethyl-16-(2,3,6-trifluorobenzyl)-1,4,7,11,14-pentaazacyclooctadecane-3,6,10,15,18-pentaone] as the molecule, how does the Max % inhibition read?
A: The Max % inhibition was 98.94%.

Q: What about the IC50 of the same molecule?
A: Its IC50 is 4.3 nM.

Q: COC[C@@H]1NC(=O)[C@H](C)N(Cc2ccc(Cl)cc2Oc2ccc(-c3cnc4n3CCN(C(=O)C3CCNC3)C4)cc2)C(=O)C[C@@H](Cc2ccccc2)C(=O)N(C)[C@@H](C)CNC(=O)C[C@H](Cc2ccc(Cl)cc2)N(C)C1=O.O=C(O)C(F)(F)F (stereo partly drawn) [Compound 124, (2S,5S,8S,13S,16R)-16-benzyl-1-(4-chloro-2-(4-(7-(pyrrolidine-3-carbonyl)-5,6,7,8-tetrahydroimidazo[1,2-a]pyrazin-3-yl)phenoxy)benzyl)-8-(4-chlorobenzyl)-5-(methoxymethyl)-2,7,13,14-tetramethyl-1,4,7,11,14-pentaazacyclooctadecane-3,6,10,15,18-pentaone trifluoroacetate] was tested. Which Max % inhibition did it give?
A: Its Max % inhibition is 100.50%.

Q: And the IC50?
A: The IC50 was 3.8 nM.

Q: COC[C@@H]1NC(=O)[C@H](C)N(Cc2ccc(Cl)cc2Oc2ccc(-c3cnc(CN(C)C)n3C)cc2)C(=O)C[C@@H](Cc2ccon2)C(=O)N(C)[C@H]2CCCC[C@@H]2NC(=O)C[C@H](Cc2ccc(Cl)cc2)N(C)C1=O [Compound 18, (4S,7S,10S,14R,16aS,20aS)-11-(4-chloro-2-(4-(2-((dimethylamino)methyl)-1-methyl-1H-imidazol-5-yl)phenoxy)benzyl)-4-(4-chlorobenzyl)-14-(isoxazol-3-ylmethyl)-7-(methoxymethyl)-5,10,16-trimethylhexadecahydrobenzo[l][1,4,7,11,14]pentaazacyclooctadecine-2,6,9,12,15(3H)-pentaone] was tested. Which Max % inhibition did it give?
A: Its Max % inhibition is 86.12%.

Q: What about the IC50 of the same molecule?
A: Its IC50 is 1.1 nM.

Q: For COC[C@@H]1NC(=O)[C@H](C)N(Cc2ccc(Cl)cc2Oc2ccc(-c3cnc4n3CCN(C(=O)C(C)C)C4)cc2)C(=O)C[C@@H](Cc2ccccc2)C(=O)N(C)[C@@H](C)CNC(=O)C[C@H](Cc2ccc(Cl)cc2)N(C)C1=O [Compound 132, (2S,5S,8S,13S,16R)-16-benzyl-1-(4-chloro-2-(4-(7-isobutyryl-5,6,7,8-tetrahydroimidazo[1,2-a]pyrazin-3-yl)phenoxy)benzyl)-8-(4-chlorobenzyl)-5-(methoxymethyl)-2,7,13,14-tetramethyl-1,4,7,11,14-pentaazacyclooctadecane-3,6,10,15,18-pentaone], which Max % inhibition is on record?
A: The Max % inhibition was 71.97%.

Q: What about the IC50 of the same molecule?
A: Its IC50 is 7.3 nM.

Q: Which Max % inhibition does the source give for COC[C@@H]1NC(=O)[C@H](C)N(Cc2ccc(Cl)cc2Oc2ccc(-c3cnc(CN4CCCC4)n3C)cc2)C(=O)C[C@@H](Cc2ccccc2)C(=O)N(C)[C@@H](CCCCN)CNC(=O)C[C@H](Cc2ccc(Cl)cc2)N(C)C1=O.O=C(O)C(F)(F)F [Compound 169, (2S,5S,8S,13S,16R)-13-(4-aminobutyl)-16-benzyl-1-(4-chloro-2-(4-(1-methyl-2-(pyrrolidin-1-ylmethyl)-1H-imidazol-5-yl)phenoxy)benzyl)-8-(4-chlorobenzyl)-5-(methoxymethyl)-2,7,14-trimethyl-1,4,7,11,14-pentaazacyclooctadecane-3,6,10,15,18-pentaone trifluoroacetate] here?
A: Its Max % inhibition is 91.73%.

Q: And the IC50?
A: The IC50 was 1.3 nM.
